Assay results taken from US8846115B2, “Anti-inflammatory cyclooxygenase inhibitors” (Metaproteomics, LLC, priority 2001, dated 2014).
Read-outs that look alike come from different tables or passages of the source.

- Solubility (aqueous solution that can be made) (pH 7.5): 20 % aqueous solution
- Solubility (aqueous solution that can be made) (pH 9): 30 % aqueous solution
Substance: iso-alpha acids
